25 compounds from ChEMBL document CHEMBL1641539 (Bioorg Med Chem Lett, 2011) can be followed below.

The target of data set [1] is Mitogen-activated protein kinase 8 (Homo sapiens, UniProt P45983). Kind of data set: Inhibition of recombinant JNK1 after 60 mins by TR-FRET assay.
The target of data set [2] is Mitogen-activated protein kinase 9 (Homo sapiens, UniProt P45984). Kind of data set: Inhibition of recombinant JNK2 after 60 mins by TR-FRET assay. (In general: In TR-FRET formats the signal depends on donor and acceptor labels being close together.)
Mitogen-activated protein kinase 9, sequence (P45984 whole entry): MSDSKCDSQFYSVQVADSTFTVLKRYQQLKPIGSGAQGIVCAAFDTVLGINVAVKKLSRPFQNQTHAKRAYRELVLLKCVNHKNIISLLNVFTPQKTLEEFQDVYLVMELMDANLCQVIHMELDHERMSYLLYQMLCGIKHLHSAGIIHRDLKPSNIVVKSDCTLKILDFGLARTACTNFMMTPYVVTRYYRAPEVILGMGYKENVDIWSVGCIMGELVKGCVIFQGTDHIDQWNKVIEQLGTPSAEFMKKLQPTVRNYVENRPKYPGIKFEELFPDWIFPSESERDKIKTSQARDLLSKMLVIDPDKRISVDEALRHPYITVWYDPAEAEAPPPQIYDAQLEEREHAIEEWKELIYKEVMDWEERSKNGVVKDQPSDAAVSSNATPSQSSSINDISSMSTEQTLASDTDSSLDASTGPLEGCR
In data set [3] the target is Mitogen-activated protein kinase 14 (Homo sapiens, UniProt Q16539). Description: Inhibition of recombinant p38alpha after 60 mins by TR-FRET assay.
Mitogen-activated protein kinase 14, sequence (Q16539 whole entry): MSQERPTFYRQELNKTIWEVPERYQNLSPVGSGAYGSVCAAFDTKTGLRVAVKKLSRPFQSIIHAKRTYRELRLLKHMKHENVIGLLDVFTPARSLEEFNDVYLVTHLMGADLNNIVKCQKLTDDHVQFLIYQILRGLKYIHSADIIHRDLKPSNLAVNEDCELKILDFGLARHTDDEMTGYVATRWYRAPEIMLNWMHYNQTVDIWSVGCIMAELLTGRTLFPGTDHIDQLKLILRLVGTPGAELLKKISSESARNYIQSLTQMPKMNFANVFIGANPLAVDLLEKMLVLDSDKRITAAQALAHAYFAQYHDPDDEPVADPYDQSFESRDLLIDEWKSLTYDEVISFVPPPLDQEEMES
The target in data set [4] is Mitogen-activated protein kinase 1 (Homo sapiens, UniProt P28482). Description: Inhibition of recombinant ERK2 after 60 mins by TR-FRET assay.
Mitogen-activated protein kinase 1, sequence (P28482 whole entry): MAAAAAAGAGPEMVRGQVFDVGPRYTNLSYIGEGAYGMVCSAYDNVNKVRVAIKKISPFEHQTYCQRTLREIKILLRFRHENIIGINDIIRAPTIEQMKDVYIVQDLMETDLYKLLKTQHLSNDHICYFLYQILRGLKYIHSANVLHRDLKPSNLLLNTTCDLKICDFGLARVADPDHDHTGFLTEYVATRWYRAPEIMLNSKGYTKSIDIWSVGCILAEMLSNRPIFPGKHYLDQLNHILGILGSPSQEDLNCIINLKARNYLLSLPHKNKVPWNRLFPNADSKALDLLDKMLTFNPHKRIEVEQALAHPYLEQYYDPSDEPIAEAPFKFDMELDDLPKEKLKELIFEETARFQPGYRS
Data set [5] deals with Mitogen-activated protein kinase 10 (Homo sapiens, UniProt P53779). Description: Inhibition of recombinant JNK3 after 60 mins by TR-FRET assay.
Mitogen-activated protein kinase 10, sequence (P53779 whole entry): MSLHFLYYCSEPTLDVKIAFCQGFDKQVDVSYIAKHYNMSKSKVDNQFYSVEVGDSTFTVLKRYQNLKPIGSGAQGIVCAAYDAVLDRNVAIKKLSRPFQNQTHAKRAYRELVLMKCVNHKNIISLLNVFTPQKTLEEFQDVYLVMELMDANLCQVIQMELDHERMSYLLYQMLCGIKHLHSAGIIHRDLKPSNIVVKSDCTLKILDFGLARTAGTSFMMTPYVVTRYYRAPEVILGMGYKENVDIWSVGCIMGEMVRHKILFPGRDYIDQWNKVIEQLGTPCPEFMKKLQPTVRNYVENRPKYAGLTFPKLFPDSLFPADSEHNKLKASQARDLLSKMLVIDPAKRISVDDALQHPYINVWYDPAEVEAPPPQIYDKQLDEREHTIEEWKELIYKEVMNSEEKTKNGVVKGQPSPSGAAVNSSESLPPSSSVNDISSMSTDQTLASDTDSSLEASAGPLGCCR
The nature of data set [6]: Oxidative metabolic stability in human liver microsomes assessed as compound remaining at 2 uM after 30 mins. The format is ADME, Microsome. The conditions noted are these: read-out: Stability.
Data set [7] is described as follows: Apparent permeability of the compound from apical to basolateral direction in MDCK2 cells at 5 uM after 120 mins. The format is ADME, cell-based, Canis lupus familiaris, MDCK-II. The conditions noted are these: dog, MDCK.
Data set [8] in a line: Oxidative metabolic stability in mouse liver microsomes assessed as compound remaining at 2 uM after 30 mins. The conditions noted are these: read-out: Stability. It counts as ADME, Microsome.
Data set [9] is described as follows: Efflux ratio, ratio of permeability from apical to basolateral in MDCK2 cells over expressing MDR1 in presence of P-gp inhibitor to permeability from apical to basolateral in MDCK2 cells over expressing MDR1 in absence of P-gp inhibitor at 5 uM after 120 mins. The format is ADME, cell-based, Canis lupus familiaris. The conditions noted are these: dog, mdck-ii, 2 h.

The IC50 is the point on the concentration scale where inhibition reaches its midpoint. For orientation: Papp A→B means how fast a substance crosses the layer from the apical side.

Mitogen-activated protein kinase 8, sequence (P45983 whole entry): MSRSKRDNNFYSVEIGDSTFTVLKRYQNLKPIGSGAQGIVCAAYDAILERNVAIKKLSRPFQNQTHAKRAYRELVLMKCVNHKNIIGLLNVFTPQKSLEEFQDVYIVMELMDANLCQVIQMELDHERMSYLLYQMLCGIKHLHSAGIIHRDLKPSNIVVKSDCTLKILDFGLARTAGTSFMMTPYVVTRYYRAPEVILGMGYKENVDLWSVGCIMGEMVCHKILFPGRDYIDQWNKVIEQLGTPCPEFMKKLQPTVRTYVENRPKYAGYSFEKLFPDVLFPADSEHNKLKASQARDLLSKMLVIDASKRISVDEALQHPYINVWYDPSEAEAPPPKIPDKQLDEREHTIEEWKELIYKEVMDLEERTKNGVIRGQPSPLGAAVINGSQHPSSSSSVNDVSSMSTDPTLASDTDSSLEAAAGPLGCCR

As for `O=c1[nH]nc(-c2ccncc2)n1-c1ccc2ccccc2c1`, the IC50 in data set [1] is over 50000 nM; in [2], 32000 nM; in data set [3], over 50000 nM; in data set [4], over 50000 nM; in data set [5] it was 16000 nM.

Regarding `O=c1[nH]nc(-c2ccnc(Nc3ccccn3)c2)n1-c1ccc2ccccc2c1`, the IC50 in data set [1] is 2200 nM; in [2] it was 110 nM; in data set [3] it was over 50000 nM; in [4] it was over 50000 nM; in [5] it was 40 nM.

As for `O=c1[nH]nc(-c2ccnc(NC3CCOCC3)c2)n1-c1ccc2cc(F)ccc2c1`, the concentration for half-maximal inhibition (IC50) in [1] is 740 nM; in [2] it was 190 nM; in data set [3], over 50000 nM; in data set [4], over 50000 nM; in [5], 70 nM. Further, the remaining at 0.5 h, 2 µM was 88% in data set [6] and 100% in [8]. Also, the Papp A→B at 2 h, 5 µM in data set [7] was found to be 7.3 ×10⁻⁶ cm/s.

With `O=c1n(C2CCOC2)nc(-c2ccnc(NC3CCOCC3)c2)n1-c1ccc2ccccc2c1` (stereo not given), the half-maximal inhibitory concentration (IC50) in data set [1] is 3800 nM; in data set [2], 320 nM; in data set [3] it was over 50000 nM; in data set [4], over 50000 nM; in [5], 92 nM. Also, the remaining at 0.5 h, 2 µM turned out to be 27% in data set [6] and 1.6% in data set [8]. Moreover, the Papp A→B at 2 h, 5 µM in data set [7] came to 21.8 ×10⁻⁶ cm/s. In addition, in data set [9], the Ratio amounted to 1.6.

As to `O=C(Nc1cc(-c2n[nH]c(=O)n2-c2ccc3ccccc3c2)ccn1)C1CC1`, the IC50 is 4600 nM in data set [1]; 440 nM in data set [2]; over 50000 nM in data set [3]; over 50000 nM in data set [4]; 120 nM in data set [5].

Regarding `O=C(Nc1cc(-c2n[nH]c(=O)n2-c2ccc3ccccc3c2)ccn1)c1ccccc1`, the IC50 is over 50000 nM in data set [1]; 4400 nM in [2]; over 50000 nM in data set [3]; over 50000 nM in [4]; 590 nM in data set [5].

Take `O=c1[nH]nc(-c2ccnc(NC3CCOCC3)c2)n1-c1ccc2cc(Br)ccc2c1`: the IC50 was 4200 nM in data set [1]; 780 nM in data set [2]; over 50000 nM in data set [3]; over 50000 nM in [4]; 430 nM in data set [5].

On to `Nc1cccc2ccc(-n3c(-c4ccnc(NC5CCOCC5)c4)n[nH]c3=O)cc12`, for which the IC50 in data set [1] was 2600 nM; in data set [2] it was 570 nM; in data set [3] it was over 50000 nM; in [4], over 50000 nM; in data set [5], 94 nM.

Turning to `COC(=O)N1CCC(n2nc(-c3ccnc(NC4CCOCC4)c3)n(-c3ccc4ccccc4c3)c2=O)CC1`, the IC50 in data set [1] is 360 nM; in [2] it was 58 nM; in data set [3], over 50000 nM; in data set [4], over 5000 nM; in [5], 24 nM.

As to `O=c1[nH]nc(-c2ccnc(NC3CCC3)c2)n1-c1ccc2ccccc2c1`, the IC50 is 1800 nM in [1]; 220 nM in data set [2]; over 50000 nM in [3]; over 50000 nM in [4]; 70 nM in data set [5].

In the case of `CC(=O)Nc1cc(-c2n[nH]c(=O)n2-c2ccc3ccccc3c2)ccn1`, the IC50 in data set [1] is 7200 nM; in [2], 1500 nM; in [3] it was over 50000 nM; in data set [4] it was over 50000 nM; in data set [5], 410 nM.

With `O=c1[nH]nc(-c2ccnc(NC3CCCC3)c2)n1-c1ccc2ccccc2c1`, the IC50 in data set [1] is over 50000 nM; in data set [2], 350 nM; in data set [3], over 50000 nM; in [4] it was over 50000 nM; in data set [5], 130 nM.

Turning to `O=c1n(C2CCN(CC(F)(F)F)CC2)nc(-c2ccnc(NC3CCOCC3)c2)n1-c1ccc2ccccc2c1`, the IC50 is 900 nM in data set [1], 170 nM in data set [2] and 36 nM in data set [5].

Take `Nc1ccc2cc(-n3c(-c4ccnc(NC5CCOCC5)c4)n[nH]c3=O)ccc2c1`: the IC50 in data set [1] is 1700 nM; in data set [2], 5300 nM; in [3], over 50000 nM; in data set [4], over 50000 nM; in [5] it was 950 nM.

In the case of `C[C@H](Nc1cc(-c2n[nH]c(=O)n2-c2ccc3ccccc3c2)ccn1)c1ccccc1`, the IC50 in data set [1] is over 5000 nM; in data set [2], over 5000 nM; in data set [3], over 5000 nM; in [4], over 5000 nM; in [5], 3900 nM.

With `O=c1[nH]nc(-c2ccnc(Nc3cccnc3)c2)n1-c1ccc2ccccc2c1`, the IC50 was 3300 nM in data set [1]; 950 nM in [2]; over 50000 nM in data set [3]; 14000 nM in data set [4]; 250 nM in data set [5].

For `O=c1[nH]nc(-c2ccnc(NC3CCOCC3)c2)n1-c1ccc2cccc(Cl)c2c1`, the IC50 in data set [1] was 110 nM; in [2] it was 150 nM; in data set [5] it was 14 nM.

Turning to `O=c1[nH]nc(-c2ccnc(Nc3ccccc3)c2)n1-c1ccc2ccccc2c1`, the IC50 in [1] was 5700 nM; in [2], 470 nM; in data set [3] it was over 50000 nM; in data set [4], over 50000 nM; in data set [5] it was 61 nM.

On to `CCN1CCC(n2nc(-c3ccnc(NC4CCOCC4)c3)n(-c3ccc4ccccc4c3)c2=O)CC1`, for which the IC50 in data set [1] was over 5000 nM; in data set [2], 2000 nM; in [5], 280 nM.

On to `O=c1[nH]nc(-c2ccnc(NC3CC3)c2)n1-c1ccc2ccccc2c1`, for which the IC50 is 3900 nM in data set [1]; 390 nM in [2]; over 50000 nM in [3]; over 50000 nM in data set [4]; 130 nM in [5].

`O=c1n(-c2ccccn2)nc(-c2ccnc(NC3CCOCC3)c2)n1-c1ccc2ccccc2c1`: the IC50 in [1] was 1400 nM; in data set [2] it was 150 nM; in data set [3], over 50000 nM; in data set [4] it was over 50000 nM; in data set [5] it was 100 nM. Also, the remaining at 0.5 h, 2 µM in data set [6] was 59%; in data set [8], 1.5%. The Papp A→B at 2 h, 5 µM in data set [7] is 5.1 ×10⁻⁶ cm/s. For the same compound, in data set [9], the Ratio is 1.5.

Regarding `O=c1[nH]nc(-c2ccnc(Nc3nccs3)c2)n1-c1ccc2ccccc2c1`, the IC50 in [1] is over 50000 nM; in data set [2], 650 nM; in data set [3] it was over 50000 nM; in data set [4], over 50000 nM; in data set [5] it was 210 nM.

For the compound `O=c1[nH]nc(-c2ccnc(NC3CCOCC3)c2)n1-c1ccc2cccc(F)c2c1`, the IC50 in data set [1] was over 500 nM; in [2] it was 380 nM; in data set [3], over 50000 nM; in data set [4], over 50000 nM; in data set [5], 54 nM.

Turning to `O=c1n(C2CCNCC2)nc(-c2ccnc(NC3CCOCC3)c2)n1-c1ccc2ccccc2c1`, the IC50 is 4500 nM in [1]; 530 nM in data set [2]; over 50000 nM in [3]; over 5000 nM in data set [4]; 160 nM in [5].

Consider `O=c1n(CC2CCOCC2)nc(-c2ccnc(NC3CCCCC3)c2)n1-c1ccc2ccccc2c1`, for which the IC50 was 420 nM in data set [1]; 61 nM in data set [2]; over 50000 nM in [3]; over 50000 nM in data set [4]; 22 nM in data set [5].
